From US9815851B2, “Pyrrolo carboxamides as modulators of orphan nuclear receptor RAR-related orphan receptor-gamma (RORγ, NR1F3) activity and for the treatment of chronic inflammatory and autoimmune diseases” (PHENEX PHARMACEUTICALS AG, priority 2011, dated 2017)
Read-outs that look alike come from different tables or passages of the source.

What was measured:
[1] = molecular target: T1, RORγ ligand binding domain (LBD) (Homo sapiens, UniProt P51449); test: TR-FRET Activity Assay (ligand sensing, RORγ-LBD / coactivator peptide interaction, LANCE); type: biochemical
T1 construct: made in house; host or cells: E. coli BL-21 (BL3), vector pDEST15
T1 sequence (P51449 269-508 limits assumed): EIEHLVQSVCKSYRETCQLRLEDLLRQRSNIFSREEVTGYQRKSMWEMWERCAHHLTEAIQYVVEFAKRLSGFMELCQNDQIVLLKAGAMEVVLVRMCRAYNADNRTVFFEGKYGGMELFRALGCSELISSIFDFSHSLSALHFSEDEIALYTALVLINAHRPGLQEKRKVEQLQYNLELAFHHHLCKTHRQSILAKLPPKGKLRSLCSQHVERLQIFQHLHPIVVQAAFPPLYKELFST

RORγ = molecular target: T2, RORγ (UniProt P51449); test: RORγ Gal4 Reporter Gene Assay in 293T cells (firefly and renilla luciferase); type: cell-based, human
T2 sequence (P51449 1-518): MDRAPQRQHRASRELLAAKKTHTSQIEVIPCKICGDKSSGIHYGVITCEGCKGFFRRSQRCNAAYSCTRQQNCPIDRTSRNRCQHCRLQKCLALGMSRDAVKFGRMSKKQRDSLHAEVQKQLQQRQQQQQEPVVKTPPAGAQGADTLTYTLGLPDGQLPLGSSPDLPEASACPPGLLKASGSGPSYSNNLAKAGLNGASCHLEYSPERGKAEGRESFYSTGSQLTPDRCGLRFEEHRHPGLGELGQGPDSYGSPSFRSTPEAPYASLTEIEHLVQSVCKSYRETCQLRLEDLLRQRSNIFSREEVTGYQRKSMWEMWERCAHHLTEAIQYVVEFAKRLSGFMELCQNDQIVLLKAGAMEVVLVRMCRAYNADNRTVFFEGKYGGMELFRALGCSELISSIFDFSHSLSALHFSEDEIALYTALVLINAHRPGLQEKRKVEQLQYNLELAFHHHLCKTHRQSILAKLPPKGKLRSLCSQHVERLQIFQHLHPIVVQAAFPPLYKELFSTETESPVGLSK

[2] = first value of the cell FRET/FF/REN, TR-FRET activity assay, read-out: pIC50 (FRET) (converted)
[3] = second value of the cell, Gal4 reporter gene assay in 293T cells, firefly luciferase
[4] = third value of the cell, Gal4 reporter gene assay in 293T cells, renilla normalised luciferase

| Compound | IC50 [1, 2] [nM] | pIC50 (FF) (RORγ; [3]) | pIC50 (REN) (RORγ; [4]) | IC50 [1] [nM] | pIC50 (FF) (RORγ) | pIC50 (REN) (RORγ) |
| --- | --- | --- | --- | --- | --- | --- |
| Cc1c(C(=O)NC2COC2)cc(-c2cc(C(F)(F)F)c3c(c2)C2(CCO3)CC2)n1CC1CCCCC1 [1/132] | 631 | 6.8 | 6.8 |  |  |  |
| COCC(C)(C)NS(=O)(=O)c1ccc(-c2cc(C(=O)NC3CCOCC3)c(C)n2CC2CCCCC2)cc1C(F)(F)F [17/109] |  |  |  | 631 | 6.2/7.2/7.3 | 6.2/7.2/7.3 |
| Cc1c(C(=O)NC2CN(C(=O)OC(C)(C)C)C2)cc(-c2cc(C(C)(C)C)cc(C(C)(C)C)c2)n1CC1CCCCC1 [1/15] | 3160 | 5.5/5.5/5.5 | 5.5/5.5/5.5 |  |  |  |
| Cc1c(C(=O)N[C@H]2C[C@H](C(=O)O)C2)cc(-c2ccc(-c3nnc(C(C)(C)C)o3)c(C(C)(C)C)c2)n1CC1CCCCC1 [17/252] | 1580 | 6.5 | 6.6 |  |  |  |
| CCC(C)(C)NC(=O)c1cc(-c2cc(C(=O)NC3COC3)c(C)n2CC2CCCCC2)cc(C(F)(F)F)c1 [15/3] | 398 | 7.0 | 7.1 |  |  |  |
| Cc1c(C(=O)NCC(O)C(F)(F)F)cc(-c2cc(C(C)(C)C)c3c(c2)C2(CCO3)CC2)n1CC1CCCCC1 (centres unmarked) [17/23] | 1260 | 6.6 | 6.6 |  |  |  |
| Cc1c(C(=O)NC2COC2)cc(-c2cc(C(C)(C)C)cc(C(F)(F)F)c2)n1CC1CCCCC1 [1/78] |  |  |  | 316 | 6.5/7.1/7.1 | 6.5/7.1/7.1 |
| CNS(=O)(=O)c1ccc(-c2cc(C(=O)NC3CCOCC3)c(C)n2CC2CCCCC2)cc1C(F)(F)F [17/110] | 2000 | 6.3 | 6.5 |  |  |  |
| Cc1c(C(=O)NCCC(C)(C)C(=O)O)cc(-c2cc(C(C)(C)C)cc(C3(C)CC3)c2)n1CC1CCCCC1 [17/73] | 1000 | 7.2 | 7.3 |  |  |  |
| Cc1c(C(=O)NC2CCNC(=O)C2)cc(-c2ccc(S(=O)(=O)NC(C)(C)C)c(C(C)(C)C)c2)n1CC1CCCCC1 (centres unmarked) [17/89] | 1580 | 6.9 | 6.9 |  |  |  |
| Cc1c(C(=O)NC2CCOCC2)cc(-c2ccc(S(=O)(=O)NC(C)(C)C(F)(F)F)c(C(F)(F)F)c2)n1CC1CCCCC1 [17/160] |  |  |  | 200 | 6.7/7.8/8.0 | 6.7/7.8/8.0 |
| Cc1c(C(=O)NCCN2CCOCC2)cc(-c2ccc(S(=O)(=O)NC(C)(C)C)c3ccccc23)n1CC1CCCCC1 [17/269] |  |  |  | 1000 | 6.0/6.9/7.0 | 6.0/6.9/7.0 |
| Cc1c(C(=O)NCCCCN2CCOCC2)cc(-c2cc(C(C)(C)C)cc(C(C)(C)C)c2)n1CC1CCCCC1 [1/74] |  |  |  | 5010 | 5.3/<4.7/<4.7 | 5.3/<4.7/<4.7 |
| Cc1c(C(=O)NN2CCOCC2)cc(-c2cc(C(C)(C)C)c3c(c2)C2(CCO3)CC2)n1CC1CCCCC1 [17/9] |  |  |  | 631 | 6.2/6.8/6.8 | 6.2/6.8/6.8 |
| Cc1c(C(=O)NC2CCOCC2)cc(-c2ccc(S(=O)(=O)NC(C)(C)C)c(C(F)F)c2)n1CC1CCCCC1 [17/115] |  |  |  | 316 | 6.5/7.9/8.0 | 6.5/7.9/8.0 |
| Cc1c(C(=O)N2CCC(C)(O)CC2)cc(-c2ccc(S(=O)(=O)NC(C)(C)C)c(C(C)(C)C)c2)n1CC1CCCCC1 [17/93] | 1000 | 6.8 | 6.9 |  |  |  |

| Compound | IC50 [1, 2] [nM] | pIC50 (FF) (RORγ; [3]) | pIC50 (REN) (RORγ; [4]) | IC50 [1] [nM] | pIC50 (FF) (RORγ) | pIC50 (REN) (RORγ) |
| --- | --- | --- | --- | --- | --- | --- |
| COCCNC(=O)c1cc(-c2cc(C(C)(C)C)cc(C(C)(C)C)c2)n(CC2CCCCC2)c1C [1/64] | 316 | 6.5/6.5/6.5 | 6.5/6.5/6.5 |  |  |  |
| Cc1c(C(=O)N2CC3(CCOCC3)C2)cc(-c2ccc(S(=O)(=O)NC(C)(C)C)c3ccccc23)n1CC1CCCCC1 [17/266] | 251 | 8.3 | 8.5 |  |  |  |
| Cc1c(C(=O)NC2CCOCC2)cc(-c2ccc(CN3CCOCC3)c(C(F)(F)F)c2)n1CC1CCCCC1 [Example 33, 1-(Cyclohexylmethyl)-2-methyl-5-(4-(morpholinomethyl)-3-(trifluoromethyl)phenyl)-N-(tetrahydro-2H-pyran-4-yl)-1H-pyrrole-3-carboxamide] | 3160 | 6.2 | 6.3 |  |  |  |
| COCCS(=O)(=O)NC(C)(C)CNC(=O)c1cc(-c2cc(C(C)(C)C)c3c(c2)C2(CCO3)CC2)n(CC2CCCCC2)c1C [17/32] |  |  |  | 200 | 6.7/7.2/7.2 | 6.7/7.2/7.2 |
| Cc1c(C(=O)NCC(C)(C)C(=O)NCCS(C)(=O)=O)cc(-c2cc(C(C)(C)C)c3c(c2)C2(CCO3)CC2)n1CC1CCCCC1 [11/4] | 398 | 6.9 | 7.0 |  |  |  |
| Cc1c(C(=O)NCC2(O)CCOCC2)cc(-c2ccc(S(=O)(=O)NC(C)(C)C)c(C(C)(C)C)c2)n1CC1CCCCC1 [1/124] |  |  |  | 631 | 6.2/7.5/7.5 | 6.2/7.5/7.5 |
| Cc1c(C(=O)N2CCS(=O)(=O)CC2)cc(-c2ccc(S(=O)(=O)NC(C)(C)C)c(C(C)(C)C)c2)n1CC1CCCCC1 [17/100] |  |  |  | 794 |  |  |
| Cc1c(C(=O)NCCCNS(C)(=O)=O)cc(-c2cc(C(C)(C)C)c3c(c2)C2(CCO3)CC2)n1CC1CCCCC1 [17/3] |  |  |  | 398 |  |  |
| COC(C)(C)c1cc(-c2cc(C(=O)NC3COC3)c(C)n2CC2CCCCC2)cc(C(C)(C)C)c1 [1/107] |  |  |  | 794 |  |  |
| Cc1c(C(=O)NC2(C(=O)O)CC2)cc(-c2cc(C(C)(C)C)c3c(c2)C2(CCO3)CC2)n1CC1CCCCC1 [17/50] |  |  |  | 3160 |  |  |
| Cc1c(C(=O)NCC(C)(C)O)cc(-c2cc(C(=O)N(C)C(C)(C)C)cc(C(C)(C)C)c2)n1CC1CCCCC1 [15/7] |  |  |  | 1260 |  |  |
| Cc1c(C(=O)NCC(C)(C)N)cc(-c2cc(C(C)(C)C)c3c(c2)C2(CCO3)CC2)n1CC1CCCCC1.Cl [17/27] |  |  |  |  | 5.6/6.3/6.5 | 5.6/6.3/6.5 |
| Cc1c(C(=O)N[C@H]2C[C@](C)(C(=O)O)C2)cc(-c2cc(C(C)(C)C)cc(C3(C)CC3)c2)n1CC1CCCCC1 [17/171] |  |  |  | 794 |  |  |
| Cc1c(C(=O)NCC2CNCCO2)cc(-c2cc(C(C)(C)C)c3c(c2)C2(CCO3)CC2)n1CC1CCCCC1.Cl (centres unmarked) [17/7] |  |  |  |  | 5.5/<4.7/<4.7 | 5.5/<4.7/<4.7 |
| COCOc1ccc(-c2cc(C(=O)NC3COC3)c(C)n2CC2CCCCC2)cc1C(C)(C)C [1/24] |  |  |  | 631 |  |  |
